{"source": "patent US20090203877A1", "about": "“X-RAY-DENSE CONJUGATE” (Eberhard-Karls-Universitaet Tuebingen Universitaetsklinkum, priority 2006, published 2009)", "key": {"[1]": {"settings": "cited from earlier work"}, "[2]": {"tested_on": "human malignant U373 glioma cells", "experiment": "Cell viability / cell death (MTT test, propidium iodide, annexin-V-Alexa 568 binding, FACS scatter morphology)", "settings": "260 μM in 0.1% DMSO/PBS, 20 min, substance alone", "description": "Human malignant U373-glioma cells were grown to 70% confluency in RPMI-1640 Ready Mix Medium containing L-Glutamine and 10% FBS-Gold (PAA laboratories, Pasching, Austria) at 37° C., 5% CO2 (vol/vol), in 4-well-plates (NUNC, Wiesbaden, Germany) with about 300,000 cells pro well. […] After this, the cells were washed three times with buffer and then incubated with Ready Mix Medium again. Cell viability was then assessed by the addition of methyl-thiazoyl-tetrazolium (MTT) salt (Sigma-Aldrich, Germany) at a concentration of 15 mg/ml. After 20 minutes, the production of formazan was investigated. When blue formazan granules were detected, propidium iodine (PI) was added to the medium (1 μM PI; Molecular Probes, Eugene, Oreg., USA) to detect cells with damaged cell membranes. […] Pictures were taken with a 3-CCD color video camera (MC3254P, Sony, Japan) and the Axiovision Software (Carl Zeiss, Jena, Germany). The intensity of cell fluorescence was recorded at the exposure time necessary for the production of the fluorescence images.\nAfter imaging, Accutase™ (PAA laboratories, Pasching, Austria) was added to the wells to achieve detachment of the cells for further FACS analysis. Fluorescence was measured in a Becton Dickinson FACSCalibur. A total of 20,000 events per sample were analyzed. The investigations were performed in triplicate.\nA sample of cells from each Eppendorf tube was subjected to the MTT test (described under 1.4) to determine microscopically whether the cells were viable. In vitro CT of the cell pellets was performed with a Somatom Sensation 16 (Siemens) which is used for routine clinical investigations.\nCells were incubated for 20 minutes with each of the conjugates dissolved in 0.1% DMSO/PBS at 260 μm. The cells were also incubated with TIBA and both of the non-TIBA-containing conjugates (3 and 4) separately in 0.1% DMSO/OBS at 260 μm. Both TIBA and the conjugates were dissolved in 0.1% DMSO/PBS at 260 μm for incubation due to the insolubility of TIBA (but not the conjugates) in pure PBS. As controls, the cells were incubated with PBS alone, 0.1% DMSO/PBS alone, and TIBA alone (260 μm in 0.1% DMSO/PBS).\nThe detection of phosphatidyl serine in the outer membrane leaflet of apoptotic cells was performed with the Annexin-V-Alexa™-568-reagent according to manufacturer's protocol (Roche Molecular Biochemicals, Indianapolis, USA). The confocal laser-scanning microscopy was performed on an inverted LSM 510 laser-scanning microscope (Carl Zeiss, Jena, Germany) (objectives: LD Achroplan 40×0.6, Plan Neofluar 20×0.50, 40×0.75). For fluorescence excitation, the 488 nm line of an argon-ion laser and the […] line of a helium-neon laser with appropriate beam splitters and barrier filters were used for FITC and Alexa respectively. Superimposed images of FITC- and Alexa-stained samples were created by overlaying coincident views. All measurements were performed on living, non-fixed cells.\nHuman malignant LN18 and U373 glioma cells were cultivated in four-well plates (NUNC, Wiesbaden, Germany) (about 300,000 cells per well) as described under 1.5. […] The cells were also coincubated either with CIBA, FIBA or TBPI as well as the NLS-FITC conjugate 3 (each 260 μM). As a control cells were used which were only incubated either with CIBA, FIBA or TBPI (260 μM in PBS) alone. After the incubation the cells were washed three times with PBS and in the following again incubated in Ready Mix Medium. The FITC-labelled conjugates and the Alexa-Annexin for the detection of phosphatidylserine as a signal of the cell death were localized with the confocal laser microscopy (CLSM) as in 1.6.1. All measurements were performed on living cells."}, "[3]": {"experiment": "Solubility", "assay_type": "physicochemical", "settings": "260 μM"}, "[4]": {"tested_on": "human malignant U373 glioma cells", "experiment": "Computer tomography, signal density of cell pellets", "assay_type": "cell-based", "settings": "260 μM, 20 min", "description": "For CT and FACS human U373 glioma cells were grown under the same conditions in 75 cm^2 culture flasks (Corning Costar, Bodenheim, Germany) (70% confluency). Accutase™ (PAA laboratories, Pasching, Austria) was added to achieve detachment of the cells which were harvested and subsequently aliquoted into Eppendorf tubes (6×10^6 cells per tube). As in the investigations performed by fluorescence microscopy, the cells in the first tube served as a control (PBS only). The cells in the other tubes were incubated with 260 μM Ultravist, 260 μM TIBA in PBS and 26 μM, 260 μM and 2.6 mM conjugates 1-4 in PBS. After a 20 minute incubation period at 37° C. in an atmosphere of 5% CO2, the cells were washed three times in PBS and centrifuged at 800 rpm for 5 minutes.\nThe inner ear spiral CT protocol consisted of: tube voltage 120 KV, effective mAs 550, time of imaging TI: 1.5, SL 0.75/0.75/4.5, FOV: 50 0/52, kernel: U70, window: intervertebral disc.\n3D-images were obtained using InSpace Software (Syngo CT 2006G) (Siemens AG, Erlangen, Germany).\nAfter an incubation of 20 minutes at 37° C./5% CO2 the cells were washed three times with PBS buffer and centrifuged at 800 rpm (rounds per minute) for 5 minutes. The fluorescence was measured in Becton Dickinson FACSCalibur as described under 1.4. The computer tomography was performed as described under 1.5.1. The examinations were repeated two times. […]\nAn Orbita CT spiral was used: tube voltage 120 KV, effective mAs 550, time of imaging TI: 1.5, SL 0.75/0.75/4.5, FOV: 50 0/52, GT: 0.0, kernel: U70, window: intervertebral disc. 3D images were made with the InSpace Software (Syngo CT 2006G) (Siemens AG, Erlangen, Germany). […]"}}, "note": "“Also recorded” adds a separate entry of the source.", "data": [{"smiles": "O=C(O)c1cc(I)cc(I)c1I", "note": "[TIBA, 2,3,5-triiodobenzoic acid, reference compound]", "values": [{"measurement": "solubility in water", "setting": "[1]", "value": "does not dissolve in water"}, {"measurement": "binding of annexin-V-Alexa 568 reagent (phosphatidyl serine) / cytotoxic effects", "setting": "[2]", "value": "did not result in binding; also recorded: did not appear to produce any cytotoxic effects"}, {"measurement": "solubility in pure PBS", "setting": "[3]", "value": "insolubility"}, {"measurement": "CT signal density of cell pellets", "setting": "[4]", "value": "only low signal density values; also recorded: did not result in any increase in signal density"}]}]}
